Measurements taken from patent US6638952B1, “Aromatic sulfonyl alpha-cycloamino hydroxamic acid compounds” (Pharmacia Corporation, priority 1997, dated 2003).
Where a name gives a salt, the structure may show the parent alone.

Columns and labels:
recombinant human MMP-1 = biological target: T1, recombinant human MMP-1 (Homo sapiens, UniProt P03956); experiment: In vitro metalloprotease inhibition, fluorogenic peptide substrate; assay type: biochemical; details: for IC50: APMA-activated enzyme, room temperature, pH 7.5, substrate 4 μM
T1 construct: made in house; host or cells: transfected HT-1080 cells (provided by Dr. Howard Welgus, Washington University)
T1 sequence (P03956 100-469): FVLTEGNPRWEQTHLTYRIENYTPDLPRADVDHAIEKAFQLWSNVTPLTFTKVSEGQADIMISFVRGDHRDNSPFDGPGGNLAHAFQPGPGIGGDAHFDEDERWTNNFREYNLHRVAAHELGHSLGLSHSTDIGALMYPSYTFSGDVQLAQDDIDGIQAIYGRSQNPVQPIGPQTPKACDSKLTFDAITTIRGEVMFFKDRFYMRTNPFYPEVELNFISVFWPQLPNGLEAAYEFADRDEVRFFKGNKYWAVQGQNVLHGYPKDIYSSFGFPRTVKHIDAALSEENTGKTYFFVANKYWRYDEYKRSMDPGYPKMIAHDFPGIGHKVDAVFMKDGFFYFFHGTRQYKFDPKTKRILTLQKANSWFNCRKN

recombinant human MMP-13 = biological target: T2, recombinant human MMP-13 (Homo sapiens, UniProt P45452); experiment: as above; assay type: biochemical; details: for IC50: APMA-activated enzyme, room temperature, pH 7.5, substrate 4 μM
T2 construct: made in house

[1] = test system: neovascularization of the corneal stroma; experiment: In vivo angiogenesis assay (corneal micropocket); details: mouse cornea, bFGF/sucralfate pellet, daily dosing, scored at day five; exemplary dose 50 mg/kg bid, po
Experimental: The study of angiogenesis depends on a reliable and reproducible model for the stimulation and inhibition of a neovascular response. The corneal micropocket assay provides such a model of angiogenesis in the cornea of a mouse.
In this assay, uniformly sized Hydron™ pellets containing bFGF and sucralfate were prepared and surgically implanted into the stroma mouse cornea adjacent to the temporal limbus. The pellets were formed by making a suspension of 20 μL sterile saline containing 10 μg recombinant bFGF, 10 mg of sucralfate and 10 μL of 12 percent Hydron™ in ethanol. The slurry was then deposited on a 10×10 mm piece of sterile nylon mesh. […]
Mice were dosed on a daily basis for the duration of the assay. […] At day five, the degree of angiogenic inhibition was scored by viewing the neovascular progression with a slit lamp microscope.
The mice were anesthetized and the studied eye was once again proptosed. The maximum vessel length of neovascularization, extending from the limbal vascular plexus toward the pellet was measured. In addition, the contiguous circumferential zone of neovascularization was measured as clock hours, where 30 degrees of arc equals one clock hour. The area of angiogenesis was calculated as follows. […]
The studied mice were thereafter compared to control mice and the difference in the area of neovascularization was recorded.

[2] = test system: solid tumor cancers (colorectal, pancreatic, ovarian, prostate); details: patients, cited from earlier work

Row | Compound | IC50 (recombinant human MMP-1) [nM] | IC50 (recombinant human MMP-13) [nM] | also measured
1 | Cl.O=C(NO)C1(CS(=O)(=O)c2ccc(Oc3ccccc3)cc2)CCNCC1 [Example 6, N-Hydroxy-4-[[(4-phenoxyphenyl)sulfonyl]-methyl]-4-piperidinecarboxamide, Monohydrochloride] | 2400 | 8 | inhibition of area of neovascularization versus control mice [1]: 80.0%
2 | COc1cccc(CN2CCC(CS(=O)(=O)c3ccc(Oc4ccccc4)cc3)(C(=O)NO)CC2)c1 [Example 3, N-Hydroxy-1-[(3-methoxyphenyl)methyl]-4-[[(4-phenoxyphenyl)sulfonyl]methyl]-4-piperidinecarboxamide, Monohydrochloride] | 330 | 0.4 | –
3 | C#CCN1CCC(CS(=O)(=O)c2ccc(Oc3ccccc3)cc2)(C(=O)NO)CC1 [Example 4, N-Hydroxy-4-[[(4-phenoxyphenyl)sulfonyl]-methyl]-1-(2-propynyl)-4-piperidinecarboxamide, Monohydrochloride] | 485 | 0.6 | –
4 | O=C(NO)C1(CS(=O)(=O)c2ccc(Oc3ccccc3)cc2)CCN(CCc2ccccc2)CC1 [Example 2, N-Hydroxy-4-[[(4-phenoxyphenyl)sulfonyl]-methyl]-1-(2-phenylethyl)-4-piperidinecarboxamide, Monohydrochloride] | 700 | – | –
5 | CNC(=O)[C@@H](NC(=O)[C@H](CC(C)C)[C@H](O)C(=O)NO)C(C)(C)C [marimastat] | – | – | effect on cancer-specific antigens used as surrogate markers for biological activity ([2]; Phase I/II studies, meta analysis): dose-related reduction in the rise of cancer-specific antigens; most common drug-related toxicity ([2]; clinical trials): musculoskeletal pain and stiffness
6 | Cl.O=C(Nc1ccc(S(=O)(=O)CC2(C(=O)NO)CCNCC2)cc1)c1ccccc1 [Example 1, N-hydroxy-4-[[[4-(benzoylamino)phenyl]sulfonyl]methyl]-4-piperidinecarboxamide, monohydrochloride] | > 10000 | 243 | activity against MMP-1 (in words) (recombinant human MMP-1; comment on Table 13): virtually unbound; activity against MMP-13 (in words) (recombinant human MMP-13; comment on Table 13): moderate activity

More lines, main results first:

Row | IC50 (recombinant human MMP-1) [nM] | IC50 (recombinant human MMP-13) [nM] | Compound | also measured
7 | 475 | 0.2 | CC(C)(C)OC(=O)N1CCC(CS(=O)(=O)c2ccc(Oc3ccccc3)cc2)(C(=O)NO)CC1 [Example 5, 1,1-Dimethylethyl Ester 4-[(Hydroxyamino)-carbonyl]-4-[[(4-phenoxyphenyl]sulfonyl]methyl]-1-piperidinecarboxylic Acid] | –
8 | – | 0.85 | C#CCN1CCC(CS(=O)(=O)c2ccc(Oc3ccc(C)c(C)c3)cc2)(C(=O)NO)CC1 [Example 7, N-Hydroxy-4-[[[4-(3,4-dimethylphenoxy)phenyl]sulfonyl]-methyl]-1-(2-propynyl)-4-piperidinecarboxamide, Monohydrochloride] | –
9 | – | 1.3 | C#CCN1CCCC1(CS(=O)(=O)c1ccc(Oc2ccccc2)cc1)C(=O)NO (stereo not drawn) [Example 8, N-Hydroxy-2-[[(4-phenoxyphenyl)sulfonyl]-methyl]-1-(2-propynyl)-2-pyrrolidine Carboxamide, Monohydrochloride] | –
